Source: ChEMBL document CHEMBL4393693, “Synthesis and Structure-Activity relationship of 1-(5-isoquinolinesulfonyl)piperazine analogues as inhibitors of Mycobacterium tuberculosis IMPDH” (Eur J Med Chem, 2019)

Experiment: Inhibition of recombinant N-terminal His6-tagged Mycobacterium tuberculosis H37Rv IMPDH expressed in Escherichia coli BL21 (DE3) cells assessed as reduction of NAD+ to NADH using IMP and NAD+ as substrate treated 1 min after substrate incubation with enzyme by UV-visible spectrophotometry

**Q.** For `O=C(NCCNS(=O)(=O)c1cccc2cnccc12)C1CCCCC1`, which IC50 is on record?
**A.** 500 to 1500 nM
